In patent publication US20040034003A1, “7-Hydroxy-16alpha-fluoro-5-androsten-17-ones and 7-hydroxy-16alpha-fluoro-5-androstan-17-ones and derivatives thereof” (priority 2002, published 2004):
Several values for one entry are separate records, joined by “and”; a condition that tells them apart may be missing. Equal entries are not always repeated.

Test system: TPA-Induced DNA Synthesis in Mouse Epidermis
Experiment: TPA-induced DNA synthesis in mouse epidermis: [3H]thymidine incorporation and epidermal DNA content of a 2x2 cm2 skin section
Assay type: in vivo
Details: for corrected cpm / cpm/μg DNA / μg DNA / cpm: individual mouse; for lowest effective dose which suppresses TPA-stimulated epidermal [3H]thymidine incorporation and DNA content: mice
Procedure: Epidermal hypeplasia is determined by measuring the stimulation in [^3H] thymidine incorporation as well as epidermal DNA content of a 2×2 cm^2 section of skin twenty hours after TPA application.
In prior experiments, 16α-fluoro-5-androsten-17-one was administered in escalating doses by the oral subcutaneous, intraperitoneal, and buccal routes of administration, and the effect on TPA-stimulated epidermal [^3H] thymidine incorporation and epidermal DNA content was determined.
In this experiment, the effect of treating mice subcutaneously (s.c.) with suspensions of 7α-hydroxy-16α-flouro-5-androsten-17-one and suspensions of 16aflouro-5-androsten-17-one were investigated.
Variousl6α-flouro-5-androsten-17 one suspensions (Q) were prepared. The vehicle was 95% saline (0.9% NaCl) and 5% Emulphor. For the 5 mg/kg s.c. suspension, 25.3 mg was suspended in 10 mL of Emulphor-saline. The other suspensions were made by diluting the 5 mg/kg suspension. For the 2.5 mg/kg suspension, 1 mL of 5mg/kg s.c. suspension was diluted to a final volume of 2mL, for the 1 m/kg suspension 1 mL of the 5 mg/kg suspension was made to a total of 5 mL, while for the 0.125 mg/kg suspension, 0.5 mL of the 5 mg/kg suspension was made to a final volume of 20 mL. Magnetic stir bars were added to the suspensions which were kept on a magnetic stirrer.
7α-hydroxy-16α-flouro-5-androsten-17-one was prepared as described hereinabove. For the 5 mg/kg s.c. suspension, 16.3 mg was suspended in 6.5 mL of Emulphor-saline. The other suspensions were made by diluting the 5 mg/kg suspension. For the 2.5 mg/kg, 1 mL of 5 mg/kg suspension was diluted to a final volume of 2 mL, for the 1 mg/kg suspension 1 mL of the 5 mg/kg suspension was made to total 5 mL, while for the 0.125 mg/kg suspension, 0.5 mL of the 5 mg/kg suspension was made up to final volume of 20 mL. Magnetic stir bars were added to the suspensions and the suspensions were kept on a magnetic stirrer.
Female CD-1 mice were obtained from Charles River Laboratories, Wilmington, Mass. at 44-46 days of age. The mice were housed two to three per cage in plastic shoebox cages on Alphacel bedding with 12 hours of alternating light and dark in the CAF Animal Facility, 6th floor, Pharmacy Building. The mice had ad libitum access-to Purina 5015 chow and acidified tap water (pH≦2.6). The mice were allowed to acclimate to the facility for one week prior to use in an experiment. Three days after obtaining the mice, the mice were shaved and weighed. Only those mice showing no hair regrowth were used in the experiment.
Four days after the mice were shaved, they were treated as follows:
The mice were sacrificed 20 hours after treatment by an overdose of CO2. Twenty minutes prior to sacrifice, the mice were injected with 60 μCi of [^3H]thymidine (Amersham Batch 297). The mice were treated with a depilatory to remove any residual hair. A 2×2 cm^2 piece of skin was excised, placed in ice water for 30 seconds, then in 55° C. water for 30 seconds, then ice water again for 30 seconds. The epidermis was scrapped off using a scalpel and the scrapings were placed into ice cold 0.4N TCA (trichloroacetic acid). The scrapings were homogenized using a Tekmar Tissumizer (80% power for 30 seconds). The homogenates were centrifuged for 20 minutes at 3,000×g. The precipitates were washed 3× with 0.2N TCA, and 2× with absolute ethanol. The DNA in each sample was hydrolyzed with 0.5N TCA for 30 minuts at 90°. The tubes were centrifuged for 20 minutes at 3000×g. A 0.2 mL aliquot of each hydrolysate was counted in a LKB Rackbeta scintillation counter using Scintiverse II BD as the counting medium. DNA content was determined by the Burton diphenylamine assay.
Various suspensions were prepared of 16α-fluoro-5-androsten-17-one as follows. The vehicle was 95% saline (0.9% NaCl) and 5% Emulphor. For the 5 mg/kg s.c. suspension, 27.8 mg was suspended in 11.4 mL of Emulphor-saline. The other suspensions were made by diluting the 5 mg/kg suspension. […]

[1] = Example 5, 1 mg/kg s.c. 1 h before topical TPA 2 μg, 20 h
[2] = Example 5, 1 mg/kg s.c. 1 h before topical TPA 2 μg, 20 h, 1 mg/kg
[3] = Example 5, 1.75 mg/kg s.c. 1 h before topical TPA 2 μg, 20 h, 1.75 mg/kg
[4] = Example 5, 2.5 mg/kg s.c. 1 h before topical TPA 2 μg, 20 h
[5] = Example 5, 2.5 mg/kg s.c. 1 h before topical TPA 2 μg, 20 h, 2.5 mg/kg
[6] = Example 5, 3.75 mg/kg s.c. 1 h before topical TPA 2 μg, 20 h, 3.75 mg/kg
[7] = Example 5, 5 mg/kg s.c. 1 h before topical TPA 2 μg, 20 h
[8] = Example 5, 5 mg/kg s.c. 1 h before topical TPA 2 μg, 20 h, 5 mg/kg
[9] = Example 4, 0.125 mg/kg s.c. 1 h before topical TPA 2 μg, 20 h, 0.125 mg/kg
[10] = Example 4, 1 mg/kg s.c. 1 h before topical TPA 2 μg, 20 h, 1 mg/kg
[11] = Example 4, 2.5 mg/kg s.c. 1 h before topical TPA 2 μg, 20 h, 2.5 mg/kg
[12] = Example 4, 5 mg/kg s.c. 1 h before topical TPA 2 μg, 20 h, 5 mg/kg
[13] = Example 5, 1 mg/kg s.c. 1 h before topical TPA 2 μg, 20 h, listed as Fluasterone, 1 mg/kg
[14] = Example 5, 2.5 mg/kg s.c. 1 h before topical TPA 2 μg, 20 h, listed as Fluasterone, 2.5 mg/kg
[15] = Example 5, 5 mg/kg s.c. 1 h before topical TPA 2 μg, 20 h, listed as Fluasterone, 5 mg/kg
[16] = prior experiments, escalating doses, oral, subcutaneous, intraperitoneal and buccal routes

C[C@]12CCCCC1=C[C@H](O)[C@@H]1[C@@H]2CC[C@]2(C)C(=O)[C@H](F)C[C@@H]12 [7β-hydroxy-16α-fluoro-5-androsten-17-one, 16α-fluoro-7β-hydroxy-5-androsten-17-one]
cpm/μg DNA (group average ±) [1]: 283.4 ± 35.3 cpm/μg DNA | corrected cpm [2]: 4,501.0 cpm and 3,230.0 cpm | cpm/μg DNA [2]: 308.3 cpm/μg DNA and 258.4 cpm/μg DNA | μg DNA [2]: 14.6 µg and 12.5 µg | cpm (Example 5, 1 mg/kg s.c. 1 h before topical TPA 2 μg, female CD-1 mice, 20 h, 1 mg/kg): 4,527.0 cpm and 3,256.0 cpm | cpm/μg DNA (group average ±) (Example 5, 1.75 mg/kg s.c. 1 h before topical TPA 2 μg, 20 h): 156.6 ± 17.0 cpm/μg DNA | corrected cpm [3]: 1,445.0 cpm and 1,534.0 cpm | cpm [3]: 1,471.0 cpm and 1,560.0 cpm | cpm/μg DNA [3]: 144.5 cpm/μg DNA and 168.6 cpm/μg DNA | μg DNA [3]: 10.0 µg and 9.1 µg | cpm/μg DNA (group average ±) [4]: 480.5 ± 117.6 cpm/μg DNA | corrected cpm [5]: 3,814.0 cpm and 5,861.0 cpm | cpm [5]: 3,840.0 cpm and 5,887.0 cpm | cpm/μg DNA [5]: 397.3 cpm/μg DNA and 563.6 cpm/μg DNA | μg DNA [5]: 9.6 µg and 10.4 µg | cpm/μg DNA (group average ±) (Example 5, 3.75 mg/kg s.c. 1 h before topical TPA 2 μg, 20 h): 485.4 ± 115.3 cpm/μg DNA | corrected cpm [6]: 4,706.0 cpm and 2,585.0 cpm | cpm [6]: 4,732.0 cpm and 2,611.0 cpm | cpm/μg DNA [6]: 567.0 cpm/μg DNA and 403.9 cpm/μg DNA | μg DNA [6]: 8.3 µg and 6.4 µg | cpm/μg DNA (group average ±) [7]: 653.7 ± 61.0 cpm/μg DNA | corrected cpm [8]: 6,132.0 cpm and 3,908.0 cpm | cpm [8]: 6,158.0 cpm and 3,934.0 cpm | cpm/μg DNA [8]: 696.8 cpm/μg DNA and 610.6 cpm/μg DNA | μg DNA [8]: 8.8 µg and 6.4 µg | activity compared with 16α-fluoro-5-androsten-17-one (in words) (Example 5, s.c.): much more active | dose producing an overstimulation of [3H]thymidine incorporation (Example 5, s.c.): 2.5 mg/kg

C[C@]12CCCCC1=CC[C@@H]1[C@@H]2CC[C@]2(C)C(=O)[C@H](F)C[C@@H]12 [Q, 16α-fluoro-5-androsten-17-one, reference compound]
μg DNA (Example 4, 0.125 mg/kg s.c. 1 h before topical TPA 2 μg, 20 h, Burton diphenylamine assay, 0.125 mg/kg): 10.0 µg and 9.1 µg | cpm/μg DNA (group average ±) (Example 4, 0.125 mg/kg s.c. 1 h before topical TPA 2 μg, 20 h): 441.5 ± 133.4 cpm/μg DNA | corrected cpm [9]: 3,471.0 cpm and 4,876.0 cpm | cpm/μg DNA [9]: 347.1 cpm/μg DNA and 535.8 cpm/μg DNA | cpm (Example 4, 0.125 mg/kg s.c. 1 h before topical TPA 2 μg, female CD-1 mice, 20 h after treatment, 0.125 mg/kg): 3,496.0 cpm and 4,901.0 cpm | cpm/μg DNA (group average ±) (Example 4, 1 mg/kg s.c. 1 h before topical TPA 2 μg, 20 h): 236.4 ± 46.5 cpm/μg DNA | corrected cpm [10]: 1,811.0 cpm and 2,750.1 cpm | cpm [10]: 1,836.0 cpm and 2,775.1 cpm | cpm/μg DNA [10]: 203.5 cpm/μg DNA and 269.6 cpm/μg DNA | μg DNA [10]: 8.9 µg and 10.2 µg | cpm/μg DNA (group average ±) (Example 4, 2.5 mg/kg s.c. 1 h before topical TPA 2 μg, 20 h): 173.3 ± 11.3 cpm/μg DNA | corrected cpm [11]: 1,251.0 cpm and 1,207.0 cpm | cpm [11]: 1,276.0 cpm and 1,232.0 cpm | cpm/μg DNA [11]: 181.3 cpm/μg DNA and 165.3 cpm/μg DNA | μg DNA [11]: 6.9 µg and 7.3 µg | cpm/μg DNA (group average ±) (Example 4, 5 mg/kg s.c. 1 h before topical TPA 2 μg, 20 h): 1105.5 ± 28.4 cpm/μg DNA | corrected cpm [12]: 8,249.0 cpm and 10,018.0 cpm | cpm [12]: 8,274.0 cpm and 10,043.0 cpm | cpm/μg DNA [12]: 1,085.4 cpm/μg DNA and 1,125.6 cpm/μg DNA | μg DNA [12]: 7.6 µg and 8.9 µg | dose producing a nadir in [3H]thymidine incorporation (Example 4, s.c.): 2.5 mg/kg | dose producing an overstimulation of [3H]thymidine incorporation (Example 4, s.c.): 5 mg/kg | cpm/μg DNA (group average ±) [1]: 170.3 ± 21.7 cpm/μg DNA | corrected cpm [13]: 2,691.0 cpm and 2,741.0 cpm | cpm/μg DNA [13]: 185.6 cpm/μg DNA and 154.9 cpm/μg DNA | μg DNA [13]: 14.5 µg and 17.7 µg | cpm (Example 5, 1 mg/kg s.c. 1 h before topical TPA 2 μg, female CD-1 mice, 20 h, listed as Fluasterone, 1 mg/kg): 2,717.0 cpm and 2,767.0 cpm | cpm/μg DNA (group average ±) [4]: 81.4 ± 12.0 cpm/μg DNA | corrected cpm [14]: 496.0 cpm and 566.0 cpm | cpm [14]: 522.0 cpm and 592.0 cpm | cpm/μg DNA [14]: 72.9 cpm/μg DNA and 89.8 cpm/μg DNA | μg DNA [14]: 6.8 µg and 6.3 µg | cpm/μg DNA (group average ±) [7]: 258.8 ± 12.0 cpm/μg DNA | corrected cpm [15]: 2,192.0 cpm and 1,777.0 cpm | cpm [15]: 2,218.0 cpm and 1,803.0 cpm | cpm/μg DNA [15]: 267.3 cpm/μg DNA and 250.3 cpm/μg DNA | μg DNA [15]: 8.2 µg and 7.1 µg | dose producing a nadir in [3H]thymidine incorporation (Example 5, s.c.): 2.5 mg/kg | dose producing an overstimulation of [3H]thymidine incorporation (Example 5, s.c.): 5 mg/kg | lowest effective dose which suppresses TPA-stimulated epidermal [3H]thymidine incorporation and DNA content (prior experiments, buccal route): 2.5 to 5 mg/kg | dose response for [3H]thymidine incorporation (in words) [16]: U-shaped dose response | epidermal DNA content as the dose increased (in words) [16]: remained suppressed | lowest effective dose which suppresses TPA-stimulated epidermal [3H]thymidine incorporation and DNA content (prior experiments, intraperitoneal route): 5 mg/kg | lowest effective dose which suppresses TPA-stimulated epidermal [3H]thymidine incorporation and DNA content (prior experiments, oral route): 200 mg/kg | lowest effective dose which suppresses TPA-stimulated epidermal [3H]thymidine incorporation and DNA content (prior experiments, subcutaneous route): 2.5 mg/kg | TPA-induced epidermal hyperplasia in mice (in words) (prior finding): inhibits
